In paper PMC7147261, “Selective Antibacterial Activity and Lipid Membrane Interactions of Arginine-Rich Amphiphilic Peptides” (ACS Applied Bio Materials, 2020):
Ends that are not written are not given here.

What was measured:
[1] = previously reported; cited from earlier work
Protocol: The two “blocky” surfactant-like peptides […] and […] are both able to self-assemble in aqueous solution at concentrations in excess of critical values, obtained from fluorescence probe assays. The cac = 0.3 wt % (≡ 3.2 mM) for […] is higher than that previously obtained for the compositional homologue peptide […], for which the cac = 2.3 mM.[16]

[2] = system: 161br human skin fibroblasts; assay: in vitro; format: cell-based; settings: 72 h, 0.05 wt %
Protocol: (§1) The cytotoxicity of both R3F3 and R4F4 was examined. In vitro cell culture was conducted using 161Br (European Collection of Authenticated Cell Cultures, ECACC) cells, a human skin fibroblast cell line. Cells were cultured in EMEM (Eagle’s minimum essential medium), with 2 mM glutamine, enriched with 15% fetal bovine serum (FBS) and 1% nonessential amino acids (NEAA). Cells were maintained in a humidified atmosphere of 37 °C, 5% CO2.
(§2) Potential cytotoxicity effects were examined using the MTT (3-(4,5-dimethylthiazol-2-yl)-2,5-diphenyltetrazolium bromide) assay. The peptides were dissolved in complete media. Cells were seeded into a 96-well plate at 4 × 10^4 cells/mL and allowed to adhere for 24 h in 100 μL complete medium. After this, 100 μL of either complete media and/or peptide solution was added, to give either control solution, or solutions of peptide between the concentrations of 0.0625–4 mg/mL.
(§3) Cells were incubated for 67 h. After this, 20 μL MTT (5 mg/mL, in PBS) was added to each well plate and allowed to incubate for 5 h. After a further 5 h (72 h total), the solution was removed from the wells and replaced with 100 μL of DMSO per well, which dissolves the formazan crystals. Plates were incubated for 30 min, and then analyzed using a UV microplate reader (λ = 570 nm). Results are reported as a percentage cell viability compared to control (untreated) values, and fitted to a sigmoidal function using Origin Lab as a guide to the eye.
(§4) Figure S2. CD data for a) R3F3 and b) R4F4 with DPPG (concentrations indicated) .
(§5) Figure S3. Cytotoxicity profiles from MTT assays, where 161br Human fibroblasts were exposed to
(§6) (a) R3F3 and (b) R4F4 for 72 hours. Control solutions were prepared by incubating cells with complete
(§7) media. Results are reported as a percentage compared to the control solutions. Error bars are the
(§8) standard deviation of 3 biological replicates (with 3 technical replicates pe r assay). IC50 values
(§9) (vertical blue dashed lines) were calculated in Origin using sigmoidal fits to the viability data (dashed […]

in vitro = format: cell-based, human; settings: human
Protocol: as §1, §2, §3, §4, §5, §6, §7, §8, §9

Row | Substance | cac of compositional homologue peptide [1] [mM] | viability of human skin fibroblasts [2] [%] | IC50 at 72 h (in vitro) [mM]
1 | RFRFRF [previously studied alternating RF peptide, compositional homologue of R3F3] | 2.3 | – | –
2 | RFRFRFRF [[RF]4, previously studied oligopeptide of alternating RF motifs, compositional homologue of R4F4] | 0.34 | – | –
3 | RRRFFF [R3F3] | – | 77 | 4.31
4 | RRRRFFFF [R4F4] | – | 81 | 2.15
